The record followed here is US20250325677A1, “STAT6 DEGRADERS” (Gilead Sciences, Inc., priority 2024, published 2025).

Chain of STAT6 (P42226 whole entry): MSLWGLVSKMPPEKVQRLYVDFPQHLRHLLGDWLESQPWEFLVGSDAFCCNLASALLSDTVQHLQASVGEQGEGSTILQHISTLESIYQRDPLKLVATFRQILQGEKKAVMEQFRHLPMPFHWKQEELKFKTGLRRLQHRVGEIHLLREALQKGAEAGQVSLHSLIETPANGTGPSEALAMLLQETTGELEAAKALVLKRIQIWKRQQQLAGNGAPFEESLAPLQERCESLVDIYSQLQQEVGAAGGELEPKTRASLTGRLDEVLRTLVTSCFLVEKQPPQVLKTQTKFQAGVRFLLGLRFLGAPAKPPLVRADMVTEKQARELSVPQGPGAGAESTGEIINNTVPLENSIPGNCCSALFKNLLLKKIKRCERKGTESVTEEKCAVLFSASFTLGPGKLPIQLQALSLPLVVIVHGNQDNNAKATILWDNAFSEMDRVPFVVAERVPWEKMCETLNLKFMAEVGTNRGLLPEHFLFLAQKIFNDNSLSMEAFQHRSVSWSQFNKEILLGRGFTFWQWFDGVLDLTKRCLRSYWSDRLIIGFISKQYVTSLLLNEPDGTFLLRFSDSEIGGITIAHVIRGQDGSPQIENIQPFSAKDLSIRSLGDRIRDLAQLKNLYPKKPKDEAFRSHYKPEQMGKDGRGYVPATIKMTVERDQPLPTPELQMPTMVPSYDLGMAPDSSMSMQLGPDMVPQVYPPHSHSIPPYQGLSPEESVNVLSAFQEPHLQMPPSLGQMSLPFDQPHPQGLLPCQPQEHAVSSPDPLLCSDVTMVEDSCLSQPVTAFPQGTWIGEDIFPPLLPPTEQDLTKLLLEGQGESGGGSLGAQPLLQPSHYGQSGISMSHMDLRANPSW

The first assay concerns the target STAT6 (Homo sapiens (Human), UniProt P42226). Kind of assay: STAT6 degrader assay (HiBiT, HeLa LgBiT clone 4.14). To be noted: HeLa LgBiT clone 4.14, 4-24 h. In kind it is cell-based. Here is the method: This was a HiBit based assay. A HeLa cell line stably transfected with a small protein, LgBit (Large Bit) was obtained from Promega. These cells express endogenous STAT6. A small 11 amino acid gene sequence (HiBiT) was inserted in the STAT6 gene using CRISPR technology. Once STAT6 protein is expressed in the cells, the HiBiT sequence will bind the LgBit in the cells resulting in a functional NanoBiT protein, giving a luminescent tag to STAT6, see FIG. 2.
Single cell clones were prepared and the clone 4.14 was selected for the assay based on that clone showing high luminescence, high STAT6 phosphorylation upon stimulation with IL-4, and inhibition of luminescence when cells were treated with STAT6 siRNA.
HeLa LgBiT clone 4.14 cells were suspended in DMEM with 10% FCS, 1% Pen/Strep, Na-pyrovate and Hygromycin B, at a concentration of 1.25*105 cells pr mL. 5000 cells were added pr well of a 384 well plate and 20 nL of compound was added by Echo® liquid handler. NN6394A (terfenadine, a toxic compound) was added to control wells at 50 μM concentration to establish the assay window. In these wells the cells are dead which equals 100% degradation of STAT6.
After 4-24 h of incubation at 37° C. under 5% CO2/95% air, 5 μL substrate (Nano-GLO®) was added to the wells and the plates were centrifuged and incubated for 0.5 h.
The luminescence in the wells as a measure of non-degraded STAT6 was measured in a plate reader (BMG Pherastar FSX). The measured DC50 (in nM) was determined.
The dose-response curves Examples 3p1, 3e50, 3e17, and 3e51 are shown below (where percent degradation is plotted vs. test compound concentration in M on a log-scale).
In general terms: HiBiT is a short tag that completes a luciferase, so light tracks the accessible tagged protein.
In the case of “3-(4-((4-((1-(4-(1-((4-(1H-indazol-5-yl)-1-methyl-1H-pyrrolo[2,3-b]pyridin-2-yl)methyl)-piperidin-4-yl)benzoyl)piperidin-4-yl)methyl)piperidin-1-yl)methyl)-3-(2-methoxyethyl)-2-oxo-2,3-dihydro-1H-benzo[d]imidazol-1-yl)piperidine-2,6-dione [Example 3i2]”, the “STAT6 degradation Emax (%)” value is reported as 40-50%.

The same assay, now with this note: HeLa LgBiT clone 4.14, 4-24 h; geometric mean; given for compounds with >80% Emax; read-out: STAT6 degradation DC50.
Consider `CNc1ccc(-c2ccnc3c2cc([C@H](C)N2CCC(c4ccc(C(=O)N5CCC(CN6CCN(Cc7ccc8c(c7)n(C)c(=O)n8[C@@H]7CCC(=O)NC7=O)C[C@@H]6C)CC5)cc4)CC2)n3C)cn1` (single isomer, unassigned) [Example 3h3], for which the DC50 – broadly, the midpoint of the concentration-degradation curve – amounted to 1.1 nM. Take `Cc1cc(C(=O)N2CCC(CN3CCN(Cc4ccc5c(c4)n(C4CC4)c(=O)n5[C@H]4CCC(=O)NC4=O)C[C@@H]3C)CC2)cc(F)c1C1=CCN([C@@H](C)c2cc3c(-c4ccc(N)nc4)ccnc3n2C)CC1` (single isomer, unassigned) [Example 3h16]: the DC50 was found to be 1.6 nM. As for `Cc1cc(C(=O)N2CCC(CN3CCN(Cc4ccc5c(c4)n(C4CC4)c(=O)n5[C@@H]4CCC(=O)NC4=O)C[C@@H]3C)CC2)cc(F)c1C1=CCN([C@@H](C)c2cc3c(-c4ccc(N)nc4)ccnc3n2C)CC1` (single isomer, unassigned) [Example 3h17], the DC50 came to 0.8 nM. Still for that read-out and setting: with `Cn1c(CN2CCC(c3ccc(C(=O)N4CCC(OCC#Cc5cccc6c5n(C)c(=O)n6C5CCC(=O)NC5=O)CC4)cc3)CC2)cc2c(-c3ccc4[nH]ncc4c3)ccnc21` (stereo not shown) [Example 3a1, 3-(4-(3-((1-(4-(1-((4-(1H-indazol-5-yl)-1-methyl-1H-pyrrolo[2,3-b]pyridin-2-yl)methyl)piperidin-4-yl)benzoyl)piperidin-4-yl)oxy)prop-1-yn-1-yl)-3-methyl-2-oxo-2,3-dihydro-1H-benzo[d]imidazol-1-yl)piperidine-2,6-dione] the figure was 4.9 nM; with `Cn1c(CN2CCC(c3ccc(C(=O)N4CCC(OCC#Cc5ccc6c(c5)n(C)c(=O)n6C5CCC(=O)NC5=O)CC4)cc3)CC2)cc2c(-c3ccc4[nH]ncc4c3)ccnc21` (stereo not shown) [Example 3b1, 3-(5-(3-((1-(4-(1-((4-(1H-indazol-5-yl)-1-methyl-1H-pyrrolo[2,3-b]pyridin-2-yl)methyl)piperidin-4-yl)benzoyl)piperidin-4-yl)oxy)prop-1-yn-1-yl)-3-methyl-2-oxo-2,3-dihydro-1H-benzo[d]imidazol-1-yl)piperidine-2,6-dione], 2.4 nM; with `Cn1c(CN2CCC(c3ccc(C(=O)N4CCC(CN5CCN(Cc6ccc7c(c6)n(C)c(=O)n7C6CCC(=O)NC6=O)CC5)CC4)cc3)CC2)cc2c(-c3ccc4[nH]ncc4c3)ccnc21` (stereo not shown) [Example 3e1, 3-(5-((4-((1-(4-(1-((4-(1H-indazol-5-yl)-1-methyl-1H-pyrrolo[2,3-b]pyridin-2-yl)methyl)piperidin-4-yl)benzoyl)piperidin-4-yl)methyl)piperazin-1-yl)methyl)-3-methyl-2-oxo-2,3-dihydro-1H-benzo[d]imidazol-1-yl)piperidine-2,6-dione], 0.6 nM. Still for that read-out and setting: with `Cn1c(CN2CCC(c3ccc(C(=O)N4CCC(CN5CCN(Cc6ccc7c(c6)n(C6CC6)c(=O)n7C6CCC(=O)NC6=O)CC5)CC4)cc3)CC2)cc2c(-c3ccc4[nH]ncc4c3)ccnc21` (stereo not shown) [Example 3e6, 3-(5-((4-((1-(4-(1-((4-(1H-indazol-5-yl)-1-methyl-1H-pyrrolo[2,3-b]pyridin-2-yl)methyl)piperidin-4-yl)benzoyl)piperidin-4-yl)methyl)piperazin-1-yl)methyl)-3-cyclopropyl-2-oxo-2,3-dihydro-1H-benzo[d]imidazol-1-yl)piperidine-2,6-dione] the figure was 1.4 nM. On the same count and under the same terms, to `COCCn1c(=O)n(C2CCC(=O)NC2=O)c2ccc(CN3CCN(CC4CCN(C(=O)c5ccc(C6CCN(Cc7cc8c(-c9ccc(N)nc9)ccnc8n7C)CC6)cc5)CC4)CC3)cc21` (stereo not shown) [Example 3e7, 3-(5-((4-((1-(4-(1-((4-(6-aminopyridin-3-yl)-1-methyl-1H-pyrrolo[2,3-b]pyridin-2-yl)methyl)piperidin-4-yl)benzoyl)piperidin-4-yl)methyl)piperazin-1-yl)methyl)-3-(2-methoxyethyl)-2-oxo-2,3-dihydro-1H-benzo[d]imidazol-1-yl)piperidine-2,6-dione] belongs 9 nM. Take `C[C@@H](c1cc2c(-c3ccc4[nH]ncc4c3)ccnc2n1C)N1CCC(c2ccc(C(=O)N3CCC(CN4CCN(Cc5ccc6c(c5)n(C5CC5)c(=O)n6C5CCC(=O)NC5=O)CC4)CC3)cc2)CC1` (stereo partly drawn) [Example 3e11, 3-(5-((4-((1-(4-(1-((S)-1-(4-(1H-indazol-5-yl)-1-methyl-1H-pyrrolo[2,3-b]pyridin-2-yl)ethyl)piperidin-4-yl)benzoyl)piperidin-4-yl)methyl)piperazin-1-yl)methyl)-3-cyclo-propyl-2-oxo-2,3-dihydro-1H-benzo[d]imidazol-1-yl)piperidine-2,6-dione]: the DC50 worked out at 0.9 nM.

With `Cc1cc(C(=O)N2CCC(CN3CCN(Cc4ccc5c(c4)n(C)c(=O)n5C4CCC(=O)NC4=O)CC3)CC2)cc(C)c1C1=CCN(Cc2cc3c(-c4ccc(N)nc4)ccnc3n2C)CC1` (stereo not shown) [Example 3e12, 3-(5-((4-((1-(4-(1-((4-(6-aminopyridin-3-yl)-1-methyl-1H-pyrrolo[2,3-b]pyridin-2-yl)methyl)-1,2,3,6-tetrahydropyridin-4-yl)-3,5-dimethylbenzoyl)piperidin-4-yl)methyl)piperazin-1-yl)methyl)-3-methyl-2-oxo-2,3-dihydro-1H-benzo[d]imidazol-1-yl)piperidine-2,6-dione], the DC50 was 0.9 nM. Still for that read-out and setting: to `Cn1c(CN2CCC(c3ccc(C(=O)N4CCC(CN5CCN(Cc6ccc7c(c6F)n(C)c(=O)n7C6CCC(=O)NC6=O)CC5)CC4)cc3)CC2)cc2c(-c3ccc(N)nc3)ccnc21` (stereo not shown) [Example 3e14, 3-(5-((4-((1-(4-(1-((4-(6-aminopyridin-3-yl)-1-methyl-1H-pyrrolo[2,3-b]pyridin-2-yl)methyl)piperidin-4-yl)benzoyl)piperidin-4-yl)methyl)piperazin-1-yl)methyl)-4-fluoro-3-methyl-2-oxo-2,3-dihydro-1H-benzo[d]imidazol-1-yl)piperidine-2,6-dione] belongs 1.5 nM. Same read-out and setting: to `CC(C)[C@H]1CN(Cc2ccc3c(c2)n(C)c(=O)n3C2CCC(=O)NC2=O)CCN1CC1CCN(C(=O)c2ccc(C3CCN([C@@H](C)c4cc5c(-c6ccc(N)nc6)ccnc5n4C)CC3)cc2)CC1` (stereo partly drawn) [Example 3e21, 3-(5-(((S)-4-((1-(4-(1-((S)-1-(4-(6-aminopyridin-3-yl)-1-methyl-1H-pyrrolo[2,3-b]pyridin-2-yl)ethyl)piperidin-4-yl)benzoyl)piperidin-4-yl)methyl)-3-iso-propylpiperazin-1-yl)methyl)-3-methyl-2-oxo-2,3-dihydro-1H-benzo[d]imidazol-1-yl)piperidine-2,6-dione] belongs 2.8 nM.

The same assay, now with this note: HeLa LgBiT clone 4.14, 4-24 h; read-out: STAT6 degradation Emax (%).
`Cn1c(CN2CCC(c3ccc(C(=O)N4CCC(CN5CCC(c6ccc7c(c6)n(C)c(=O)n7C6CCC(=O)NC6=O)CC5)CC4)cc3)CC2)cc2c(-c3ccc4[nH]ncc4c3)ccnc21` (stereo not shown) [Example 3d1, 3-(5-(1-((1-(4-(1-((4-(1H-indazol-5-yl)-1-methyl-1H-pyrrolo[2,3-b]pyridin-2-yl)methyl)piperidin-4-yl)benzoyl)piperidin-4-yl)methyl)piperidin-4-yl)-3-methyl-2-oxo-2,3-dihydro-1H-benzo[d]imidazol-1-yl)piperidine-2,6-dione]: the Emax (as a rule, the maximal effect, on the per cent scale that the assay sets) lay in the range of 50 to 60%. Same read-out and setting: with `C[C@@H]1CN(Cc2ccc3c(c2)n(C)c(=O)n3C2CCC(=O)NC2=O)CCN1CC1CCN(C(=O)c2ccc(C3CCN(Cc4cc5c(-c6ccc(N)nc6)ccnc5n4C)CC3)cc2)CC1` (stereo partly drawn) [Example 3e8, 3-(5-(((R)-4-((1-(4-(1-((4-(6-aminopyridin-3-yl)-1-methyl-1H-pyrrolo[2,3-b]pyridin-2-yl)methyl)piperidin-4-yl)benzoyl)piperidin-4-yl)methyl)-3-methylpiperazin-1-yl)methyl)-3-methyl-2-oxo-2,3-dihydro-1H-benzo[d]imidazol-1-yl)piperidine-2,6-dione] the figure was 50 to 60%; with `C[C@@H](c1cc2c(-c3ccc(N)nc3)ccnc2n1C)N1CCC(c2ccc(C(=O)N3CCC(CN4CCN(Cc5ccc6c(c5)n(C5CC5)c(=O)n6C5CCC(=O)NC5=O)CC4)CC3)cc2)CC1` (stereo partly drawn) [Example 3e10, 3-(5-((4-((1-(4-(1-((S)-1-(4-(6-aminopyridin-3-yl)-1-methyl-1H-pyrrolo[2,3-b]pyridin-2-yl)ethyl)piperidin-4-yl)benzoyl)piperidin-4-yl)methyl)piperazin-1-yl)methyl)-3-cyclopropyl-2-oxo-2,3-dihydro-1H-benzo[d]imidazol-1-yl)piperidine-2,6-dione], < 20%.
